The text below walks through data of patent US4624952A, “Pyridazine and pyrimidine compounds active on the central nervous system as sedatives or anticonvulsants” (Sanofi, priority 1983, dated 1986).

In series [1] the test system is loss of the turn-around reflex in Charles River CDl mice. Briefly: Potentialization of narcosis by pentobarbital. The class given is in vivo. To be noted: po; mouse; product 60 min before pentobarbital 20 mg/kg i.p. Here is the method: With a view to assessing the hypnogenic power of the products, we have studied their capacity to potentialize the effects of a subnarcotic dose of pentobarbital in the mouse. The batches were constituted by 10 Charles River CDl mice, weighing between 20 and 24 g. The pentobarbital (20 mg/kg, i.p.) was administered 60 minutes after administration of the products. The criterion of sleep-induction retained was the loss of the turn-around reflex.

Series [2] has as its system convulsions induced by an electric shock in Charles River CDl mice. Briefly: Antagonism of the convulsions induced by an electric shock. The series is classed as in vivo. To be noted: 1 h; mouse; oral, 60 min before electric shock (12.5 volts, 0.3 seconds); read-out: Median effective dose (ED50) Antagonism of the electric shock. Here is the method:
(§1) The anti-epileptic effect of the products in the mouse was assessed on a model of convulsions provoked by an electric shock, and on a model of convulsions induced by a chemical agent: bicuculline.
The test was slightly modified from that of SWINYARD et al (1952) and ASAMI et al (1974). The equipment was composed of a Racia shock generator provided with two ocular electrodes delivering a current of 12.5 volts for 0.3 seconds. The batches were constituted by 10 Charles River CDl mice, weighing between 20 and 24 g. The products were administered by the oral route, 60 minutes before the electric shock. The animals presenting no tonic extension of the rear limbs were considered as being protected from the convulsive crisis.

Series [3] concerns convulsions provoked by bicuculline in Charles River CDl mice. As to the kind of experiment: Antagonism of the convulsions provoked by bicuculline. The class given is in vivo. The following applies: mouse; oral, 60 min before bicuculline 0.8 mg/kg i.v.; read-out: Median effective dose (ED50) Antagonism of Bicuculline. Here is the method:
as §1
The batches were constituted by 10 Charles River CDl mice, weighing between 20 and 22 g. The products were administered by the oral route, 60 minutes before the bicuculline (0.8 mg/kg, i.v.). The appearance of tonic convulsions was noted during the 60 minutes following the injection of the bicuculline.

Series [4] has as its system spontaneous motility of female Charles River CDl mice. As to the kind of experiment: Effect of the products on the spontaneous motility (actimeter test). The series is classed as in vivo. The following applies: Mus musculus, po, 0.75 h; 10 mg/kg p.o.; 45 min after administration, recorded 10 min; vs controls; * p 0,05 (Student test); read-out: Locomotor activity Score (p.cent/controls).

The subject of series [5] is turnaround reflex of mice. As to the kind of experiment: Loss of turnaround reflex (sleep-inducing effect). To be noted: 100 mg/kg, oral. The series is classed as in vivo, mouse. The protocol:
The sedative effect is translated by the reduction of the spontaneous motility of the animals. This was measured by the actimeter test developed by BOISSIER and SIMON (1965). The equipment was composed of actimetric cages, of the Apelab type (26×21.5×10 cm), through which pass two light rays which act on a photoelectric cell. The batches were constituted by 12 female Charles River CDl mice weighing between 20 and 24 g. The animals were placed individually in the cages 45 minutes after the oral administration of the products at the dose of 250 mg/kg or at the dose of 100 mg/kg. Each passage through a light beam was counted by an individual meter. The scores corresponding to the movements of the animals were recorded for 10 minutes and compared with the scores made by the batches of control animals, treated solely by the vehicle (0.1N HCl).
On the other hand, at the dose of 100 mg/kg, the CM 41378 provokes a loss of turnaround reflex characteristic of a sleep-inducing effect in 50% of the animals treated.

The nature of series [6]: Lethal dose in the mouse after acute administration. The following applies: in vivo, oral, calculated, read-out: LD50 (DL50). The protocol: The products were administered by the oral route to batches of 5 female Charles River CDl mice, weighing between 20 and 24 g. They were solubilized in 0.1N HCl.
Toxicity was noted during the 72 hours following administration of the products. The LD50 was calculated for two products.
The results expressed in percentage of animals which die in the […] consecutive to the oral administration of the products are noted in the preceding Table.

Broadly, the ED50 is the midpoint of the dose-response relation. Turning to `CN(C)C(=O)OC1CCN(c2ccc(-c3ccccc3Cl)nn2)CC1` [SR 42095], the ED50 in series [1] worked out at 7.4 mg/kg; in series [2] it was 2 mg/kg; in series [3], 1.6 mg/kg. For the same molecule, the change in vivo at 10 mg/kg in series [4] is -28%.

By LD50 is commonly meant the dose at which mortality reaches 50%. Take `OC1CCN(c2ccc(-c3ccc(Cl)cc3Cl)nn2)CC1` [SR 41378, 3-(4-hydroxy-piperidino)-6-(2,4-dichloro-phenyl)pyridazine]: the “loss of turnaround reflex characteristic of a sleep-inducing effect, animals treated” value in series [5] came out at 50%. Also, the ED50 was found to be 21 mg/kg in series [1], 30 mg/kg in series [2] and 5.7 mg/kg in series [3]. In addition, the LD50 at 72 h in series [6] was 423 mg/kg.
